Key:
[1] = tested on: MURINE COLON ADENOCARCINOMA-38; assay: Early stage murine colon adenocarcinoma-38 (Table II); format: in vivo; conditions: BDF1 male mice
From the text: (§1) Conventional Murine Tumor and Human Tumor Xenouraft Assays
Inhibition of tumors transplanted into mice is an accepted procedure for studying the efficacy of antitumor agents (Corbett, et al., In vivo Methods for Screening and Preclinical Testing; Use of rodent solid tumors for drug discovery., In: Anticancer Drug Development Guide: Preclinical Screening, Clinical Trials, and Approval, B. Teicher (ed), Humana Press Inc., Totowa, N.J., Chapter 5, pages 75–99 (1997); (Corbett, et al., Int., J. Parmacog., 33, Supplement, 102–122 (1995)). Murine tumors or human xenographs were implanted essentially as described by Corbett in In vivo Methods for Screening and Preclimical Testing; Use of rodent solid tumors for drug discovery. Briefly, the murine tumor or human xenograph was implanted subcutaneously using either 12-gauge trocar implants or counted number of cells. The location for the trocar insertion is midway between the axillary and inguinal region along the side of the mouse. The trocar is slipped approximately ¾ of an inch subcutaneously up toward the axilla before discharging the tumor fragment, and pinching the skin as the trocar is removed., Alternatively, human tumor cells prepared from a […] of donor tumors (5×10^6 cells) were implanted subcutaneously in a hind-leg of a male or female nude mouse (Charles River). Either a test compound in vehicle or vehicle alone was administered by intravenous bolus injection (iv), intraperitoneal injection (ip), or oral gavage (po). Each treatment group, as well as a group of untreated control animals, consisted of five animals per group in each experiment. Subcutaneous tumor response was monitored by tumor volume measurement performed twice each week over the course of the experiment (60–120 days). Body weights were taken as a general measure of toxicity. The subcutaneous tumor data were analyzed by determining the median tumor weight for each treatment group over the course of the experiment and calculating the tumor growth delay as the difference in days for the treatment versus the control tumors to reach a volume of either 500 or 1000 mm^3.
(§2) The compound of Example 110 was tested against a variety of murine and human tumors substantially as described supra. The parameters measured in each experiment are summarized in the following paragraphs. • Tumor Weight(mg)=(a×b^2)/2 where a=tumor length (mm) and b=tumor width (mm). • Tumor Growth Delay=T−C where T is the median time (days) required for the treatment group tumors to reach a predetermined size, and C is the median time (days) for the control group tumors to reach the same size. Tumor-free survivors are excluded from this calculation, and are tabulated separately (Tumor Free).
[formula] • where Tumor Growth Delay is as previously defined and Td is tumor volume doubling time (days), estimated from the best fit straight line from a log-linear growth plot of the control group of tumors in exponential growth (100–800 mg range) • % T/C mass—The treatment and control groups are measured when the control group tumors reach approximately 700 to 1200 mg in size (median group). The median tumor weight of each group is determined (including zeros). The T/C value in percent is an indication of antitumor effectiveness. A T/C≦42% is considered significant antitumor activity. A T/C<10% is considered to indicate highly significant antitumor activity. • Body Weight Loss Nadir—A body weight loss nadir (mean of group) of greater than 20% or drug deaths greater than 20% are considered to indicate an excessively toxic dosage in single course trials. • Activity Rating—the Activity Rating is derived from the Log Kill according to the following table: […]

[2] = tested on: MURINE MAMMARY ADENOCARCINOMA-16/C; assay: Early stage murine mammary adenocarcinoma-16/C (Table III); format: in vivo; conditions: C3H female mice
From the text: as §1
Briefly, the murine tumor or human xenograph was implanted subcutaneously using either 12-gauge trocar implants or counted number of cells. The location for the trocar insertion is midway between the axillary and inguinal region along the side of the mouse. The trocar is slipped approximately ¾ of an inch subcutaneously up toward the axilla before discharging the tumor fragment, and pinching the skin as the trocar is removed., Alternatively, human tumor cells prepared from a […] of donor tumors (5×10^6 cells) were implanted subcutaneously in a hind-leg of a male or female nude mouse (Charles River). Either a test compound in vehicle or vehicle alone was administered by intravenous bolus injection (iv), intraperitoneal injection (ip), or oral gavage (po). Each treatment group, as well as a group of untreated control animals, consisted of five animals per group in each experiment. […] Body weights were taken as a general measure of toxicity. The subcutaneous tumor data were analyzed by determining the median tumor weight for each treatment group over the course of the experiment and calculating the tumor growth delay as the difference in days for the treatment versus the control tumors to reach a volume of either 500 or 1000 mm^3.
as §2, with “The” for “The compound of Example 110 was tested against a variety of murine and human tumors substantially as described supra. The”
The median tumor weight of each group is determined (including zeros). The T/C value in percent is an indication of antitumor effectiveness.

[3] = total dose 272 mg/kg IV: 20 mg/kg day 3, 40 day 4, 106 mg/kg/injection QD days 5–6
[4] = total dose 920 mg/kg IV: 40 mg/kg day 3, 80 day 4, 160 mg/kg/injection QD days 5–9
[5] = total dose 1200 mg/kg IV: 80 mg/kg day 3, 160 day 4, 240 day 5, 120 mg/kg/injection BID days 7–9
[6] = total dose 560 mg/kg by IV infusion over 3 hours on day 3
[7] = total dose 560 mg/kg: 280 mg/kg by IV infusion on days 3 and 7
[8] = total dose 680 mg/kg IV: 80 mg/kg/injection days 3–6, 120 mg/kg/injection days 7–9

O=C(NS(=O)(=O)c1ccccc1)c1ccc(Cl)cc1Cl [Example 110, N-[2,4-dichlorobenzoyl]phenylsulfonamide]
% BODY WT LOSS AT NADIR [1, 3]: +3.1%
% T/C MASS [1, 3]: 0%
ACTIVITY RATING [1, 3]: ++++ (HIGHLY ACTIVE >2.8)
DRUG DEATHS [1, 3]: 0/5
GROWTH DELAY (DAYS) [1, 3]: All cures
LOG KILL [1, 3]: >4.5
TUMOR FREE AT DAY 144 [1, 3]: 5/5
% BODY WT LOSS AT NADIR [1, 4]: +7.7%
% T/C MASS [1, 4]: 0%
ACTIVITY RATING [1, 4]: ++++ (HIGHLY ACTIVE >2.8)
DRUG DEATHS [1, 4]: 0/5
GROWTH DELAY (DAYS) [1, 4]: All cures
LOG KILL [1, 4]: >4.5
TUMOR FREE AT DAY 144 [1, 4]: 5/5
% BODY WT LOSS AT NADIR [1, 5]: −5.2%
% T/C MASS [1, 5]: 0%
ACTIVITY RATING [1, 5]: ++++ (HIGHLY ACTIVE >2.8)
GROWTH DELAY (DAYS) [1, 5]: All cures
LOG KILL [1, 5]: >4.5
TUMOR FREE AT DAY 144 [1, 5]: 6/6
% BODY WT LOSS AT NADIR [2, 6]: DEATH
ACTIVITY RATING [2, 6]: DEATH
DRUG DEATHS [2, 6]: 5/5
GROWTH DELAY (DAYS) [2, 6]: DEATH
TUMOR FREE AT DAY 14 [2, 6]: 0/5
% BODY WT LOSS AT NADIR [2, 7]: +10.9%
% T/C MASS [2, 7]: 37%
ACTIVITY RATING [2, 7]: + (0.7–1.2)
DRUG DEATHS [2, 7]: 0/4
GROWTH DELAY [2, 7]: 2.0 days
LOG KILL [2, 7]: 0.6
TUMOR FREE AT DAY 14 [2, 7]: 0/4
% BODY WT LOSS AT NADIR [2, 8]: +7.6%
% T/C MASS [2, 8]: 39%
ACTIVITY RATING [2, 8]: + (0.7–1.2)
DRUG DEATHS [2, 8]: 0/5
GROWTH DELAY [2, 8]: 2.5 days
LOG KILL [2, 8]: 0.75
TUMOR FREE AT DAY 14 [2, 8]: 0/5

Reference: patent publication US7183320B2, “Benzoylsulfonamides and sulfonylbenzamidines for use as antitumour agents” (Eli Lilly and Company, priority 2002, dated 2007)
